Assay results published in US4383113A, “Agricultural sulfonamides” (E. I. Du Pont de Nemours and Company, priority 1981, dated 1983).

Key:
[1] = tested on: purple nutsedge; experiment: Test F soil surface spray; type: in vivo, Cyperus rotundus; conditions: .032 kg/ha
Excerpt: (§1) Purple nutsedge tubers (Cyperus rotundus) were planted about 2 cm deep in Fallsington silt loam contained in plastic pots 10 cm in diameter. Five tubers were put in each pot. Compounds of this invention were sprayed dissolved in a non-phytotoxic solvent at a volume rate of 560 l/ha. in four different methods of treatment, i.e., soil surface spray, tuber/soil spray, soil incorporated and post-emergence. For the soil surface spray, the compounds were sprayed on the firmed soil surface immediately after planting. For the tuber/soil spray, the compounds were sprayed on the exposed tubers and subtending soil before the untreated covering soil was added. Soil incorporation treatments were mixed in the covering soil. Post-emergence treatments were sprayed on the nutsedge foliage and surrounding soil surface after the nutsedge had emerged and had reached the height of about 12 cm.
(§2) Immediately after spraying the surface spray, tuber/soil spray and soil incorporated treatments were misted with about 0.3 cm of water over a 90 minute period and then placed in the greenhouse. Post-emergence treatments were placed directly into the greenhouse and watered carefully so that treatments would not be washed from the foliage.

[2] = tested on: purple nutsedge; experiment: Test F tuber/soil spray; type: in vivo, Cyperus rotundus; conditions: .008 kg/ha
Excerpt: as §1, §2

[3] = tested on: purple nutsedge; experiment: Test F soil incorporated; type: in vivo, Cyperus rotundus; conditions: .008 kg/ha
Excerpt: as §1, §2

[4] = tested on: purple nutsedge; experiment: Test F post-emergence; type: in vivo, Cyperus rotundus
Excerpt: as §1, §2

[5] = tested on: milkweed vine; experiment: Test I perennial foliage spray; type: in vivo, Morrenia odorata
Excerpt: (§3) Five-inch in diameter plastic pots were filled with a 50-50 mixture of Fallsington silt loam soil and sand and seeds of the following planted (one plant species per pot): milkweed vine (Morrenia odorata), plantain (Plantago spp.), burdock (Arctium minus), field bindweed (Convolvulus arvensis), dandelion (Taraxacum officinale), horsenettle (Solanum carolinense), bermudagrass (Cynodon dactylon), quackgrass (Agropyron repens), dallisgrass (Paspalum dilatatum) and johnsongrass (Sorghum halepense). The pots were placed in the greenhouse and the plants grown for several weeks.
(§4) The compound evaluated was diluted with a non-phytotoxic solvent and sprayed on the plant foliage. Untreated and solvent controls were included for comparison. One and eight weeks after treatment, a visual rating of the compound's effects on plant growth were made.

[6] = tested on: plantain; experiment: Test I perennial foliage spray; type: in vivo, Plantago spp.
Excerpt: as §3, §4

[7] = tested on: burdock; experiment: Test I perennial foliage spray; type: in vivo, Arctium minus
Excerpt: as §3, §4

[8] = tested on: field bindweed; experiment: Test I perennial foliage spray; type: in vivo, Convolvulus arvensis
Excerpt: as §3, §4

[9] = tested on: dandelion; experiment: Test I perennial foliage spray; type: in vivo, Taraxacum officinale
Excerpt: as §3, §4

[10] = tested on: horsenettle; experiment: Test I perennial foliage spray; type: in vivo, Solanum carolinense
Excerpt: as §3, §4

[11] = tested on: bermudagrass; experiment: Test I perennial foliage spray; type: in vivo, Cynodon dactylon; conditions: 1 week
Excerpt: as §3, §4

[12] = tested on: quackgrass; experiment: Test I perennial foliage spray; type: in vivo, Agropyron repens
Excerpt: as §3, §4

[13] = tested on: dallisgrass; experiment: Test I perennial foliage spray; type: in vivo, Paspalum dilatatum
Excerpt: as §3, §4

[14] = tested on: johnsongrass; experiment: Test I perennial foliage spray; type: in vivo, Sorghum halepense
Excerpt: as §3, §4

[15] = tested on: broadleaves; experiment: Test K field post-emergence; type: in vivo; conditions: 16 weeks
Procedure: (§5) The response of a number of noxious weed species to post-emergence applications of the same compound as used in Test J was studied in another field test. At the time of treatment, one month after mowing, the mixed vegetation was approximately 15 cm tall. The chemical was applied in water containing 0.2% of Surfactant WK® at an overall volume of 500 l/ha. Each treatment was replicated three times. Approximately 5 cm of rainfall was recorded 4 days after treatment and an additional 37 cm fell before weed control ratings were made 16 weeks after treatment.

[16] = tested on: broomsedge; experiment: Test K field post-emergence; type: in vivo; conditions: 16 weeks
Procedure: as §5

[17] = tested on: dewberry; experiment: Test K field post-emergence; type: in vivo; conditions: 16 weeks
Procedure: as §5

[18] = tested on: golden rod; experiment: Test K field post-emergence; type: in vivo; conditions: 16 weeks
Procedure: as §5

[19] = tested on: grasses; experiment: Test K field post-emergence; type: in vivo; conditions: 16 weeks
Procedure: as §5

[20] = tested on: mixed vegetation, overall; experiment: Test K field post-emergence; type: in vivo; conditions: 16 weeks
Procedure: as §5

[21] = tested on: poison ivy; experiment: Test K field post-emergence; type: in vivo; conditions: 16 weeks
Procedure: as §5

[22] = tested on: purpletop; experiment: Test K field post-emergence; type: in vivo; conditions: 16 weeks
Procedure: as §5

Question: How did the “response rating after 4 weeks” value [1] turn out when COC(=O)c1cc(Cl)ccc1S(=O)(=O)NC(=O)Nc1nc(C)cc(OC)n1 [drawing 604] was run?
Answer: 9G

Question: What about the “response rating after 4 weeks” value [2] of the same compound?
Answer: 7G

Question: And the “response rating after 4 weeks” value [3]?
Answer: 7G

Question: What about the “response rating after 4 weeks” value ([4]; .032 kg/ha) of the same compound?
Answer: 9C

Question: What about the “response rating after 4 weeks” value ([4]; .125 kg/ha) of the same compound?
Answer: 9C

Question: With COC(=O)c1ccccc1S(=O)(=O)NC(=O)Nc1nc(C)cc(C)n1 [drawing 611] as the compound, how does the plant response rating ([5]; 1 week, 1/4 kg/ha) read?
Answer: 0

Question: And the plant response rating ([5]; 1 week, 1/8 kg/ha)?
Answer: 0

Question: And the plant response rating ([5]; 8 weeks, 1/4 kg/ha)?
Answer: 10C

Question: What about the plant response rating ([5]; 8 weeks, 1/8 kg/ha) of the same compound?
Answer: 10C

Question: What about the plant response rating ([6]; 1 week, 1/4 kg/ha) of the same compound?
Answer: 0

Question: What about the plant response rating ([6]; 1 week, 1/8 kg/ha) of the same compound?
Answer: 0

Question: And the plant response rating ([6]; 8 weeks, 1/4 kg/ha)?
Answer: 10C

Question: What about the plant response rating ([6]; 8 weeks, 1/8 kg/ha) of the same compound?
Answer: 10C

Question: What about the plant response rating ([7]; 1 week, 1/4 kg/ha) of the same compound?
Answer: 0

Question: And the plant response rating ([7]; 1 week, 1/8 kg/ha)?
Answer: 0

Question: What about the plant response rating ([7]; 8 weeks, 1/4 kg/ha) of the same compound?
Answer: 10C

Question: What about the plant response rating ([7]; 8 weeks, 1/8 kg/ha) of the same compound?
Answer: 4C

Question: What about the plant response rating ([8]; 1 week, 1/4 kg/ha) of the same compound?
Answer: 2C

Question: What about the plant response rating ([8]; 1 week, 1/8 kg/ha) of the same compound?
Answer: 0

Question: And the plant response rating ([8]; 8 weeks, 1/4 kg/ha)?
Answer: 8C

Question: And the plant response rating ([8]; 8 weeks, 1/8 kg/ha)?
Answer: 7C

Question: What about the plant response rating ([9]; 1 week, 1/4 kg/ha) of the same compound?
Answer: 0

Question: And the plant response rating ([9]; 1 week, 1/8 kg/ha)?
Answer: 0

Question: And the plant response rating ([9]; 8 weeks, 1/4 kg/ha)?
Answer: 10C

Question: And the plant response rating ([9]; 8 weeks, 1/8 kg/ha)?
Answer: 10C

Question: What about the plant response rating ([10]; 1 week, 1/4 kg/ha) of the same compound?
Answer: 1C

Question: What about the plant response rating ([10]; 1 week, 1/8 kg/ha) of the same compound?
Answer: 0

Question: And the plant response rating ([10]; 8 weeks, 1/4 kg/ha)?
Answer: 10C

Question: And the plant response rating ([10]; 8 weeks, 1/8 kg/ha)?
Answer: 5C

Question: What about the plant response rating ([11]; 1/4 kg/ha) of the same compound?
Answer: 6C

Question: And the plant response rating ([11]; 1/8 kg/ha)?
Answer: 5C

Question: And the plant response rating ([12]; 1 week, 1/4 kg/ha)?
Answer: 7C

Question: And the plant response rating ([12]; 1 week, 1/8 kg/ha)?
Answer: 6C

Question: What about the plant response rating ([12]; 8 weeks, 1/4 kg/ha) of the same compound?
Answer: 10C

Question: And the plant response rating ([12]; 8 weeks, 1/8 kg/ha)?
Answer: 10C

Question: What about the plant response rating ([13]; 1 week, 1/4 kg/ha) of the same compound?
Answer: 6C

Question: What about the plant response rating ([13]; 1 week, 1/8 kg/ha) of the same compound?
Answer: 6C

Question: And the plant response rating ([13]; 8 weeks, 1/4 kg/ha)?
Answer: 10C

Question: And the plant response rating ([14]; 1 week, 1/4 kg/ha)?
Answer: 9C

Question: What about the plant response rating ([14]; 1 week, 1/8 kg/ha) of the same compound?
Answer: 8C

Question: What about the plant response rating ([14]; 8 weeks, 1/4 kg/ha) of the same compound?
Answer: 10C

Question: What about the plant response rating ([14]; 8 weeks, 1/8 kg/ha) of the same compound?
Answer: 10C

Question: For COC(=O)c1ccccc1S(=O)(=O)NC(=O)Nc1nc(C)cc(C)n1 [drawing 613], which “mean % weed control” value ([15]; 1.0 kg/ha) is on record?
Answer: 96%

Question: And the “mean % weed control” value ([15]; 2.0 kg/ha)?
Answer: 98%

Question: And the “mean % weed control” value ([15]; .5 kg/ha)?
Answer: 91%

Question: And the “mean % weed control” value ([16]; 1.0 kg/ha)?
Answer: 73%

Question: And the “mean % weed control” value ([16]; 2.0 kg/ha)?
Answer: 86%

Question: What about the “mean % weed control” value ([16]; .5 kg/ha) of the same compound?
Answer: 71%

Question: And the “mean % weed control” value ([17]; 1.0 kg/ha)?
Answer: 100%

Question: And the “mean % weed control” value ([17]; 2.0 kg/ha)?
Answer: 100%

Question: And the “mean % weed control” value ([17]; .5 kg/ha)?
Answer: 97%

Question: What about the “mean % weed control” value ([18]; 1.0 kg/ha) of the same compound?
Answer: 100%

Question: What about the “mean % weed control” value ([18]; 2.0 kg/ha) of the same compound?
Answer: 100%

Question: What about the “mean % weed control” value ([18]; .5 kg/ha) of the same compound?
Answer: 100%

Question: And the “mean % weed control” value ([19]; 1.0 kg/ha)?
Answer: 84%

Question: What about the “mean % weed control” value ([19]; 2.0 kg/ha) of the same compound?
Answer: 93%

Question: What about the “mean % weed control” value ([19]; .5 kg/ha) of the same compound?
Answer: 81%

Question: What about the “mean % weed control” value ([20]; 1.0 kg/ha) of the same compound?
Answer: 90%

Question: What about the “mean % weed control” value ([20]; 2.0 kg/ha) of the same compound?
Answer: 94%

Question: And the “mean % weed control” value ([20]; .5 kg/ha)?
Answer: 81%

Question: What about the “mean % weed control” value ([21]; 1.0 kg/ha) of the same compound?
Answer: 85%

Question: What about the “mean % weed control” value ([21]; 2.0 kg/ha) of the same compound?
Answer: 95%

Question: What about the “mean % weed control” value ([21]; .5 kg/ha) of the same compound?
Answer: 67%

Question: What about the “mean % weed control” value ([22]; 1.0 kg/ha) of the same compound?
Answer: 80%

Question: And the “mean % weed control” value ([22]; 2.0 kg/ha)?
Answer: 92%

Question: And the “mean % weed control” value ([22]; .5 kg/ha)?
Answer: 73%
